Laboratory results as given in patent US20110182877A1, “SUSTAINED DELIVERY OF COMPSTATIN ANALOGS FROM GELS” (POTENTIA PHARMACEUTICALS, INC., priority 2007, published 2011).
Where “and” joins values, the source holds several entries; their conditions need not be identical. Equal values may be shown once. Each block holds one compound with its values, some of them ahead of it. Bridge positions count the residues as written; N and C are the ends. Square brackets hold non-standard residues; d marks the D form. Trp(5-F) = N[C@@H](Cc1c[nH]c2ccc(F)cc12)C(=O)O

Tests used:
[1] = Intravitreal administration to non-human primates: deposit formation and compound content (Example 1); assay type: in vivo; details: Cynomolgus monkey, IVT 150 μg/eye, from 4 hours to 2 weeks post administration
Procedure: Two different formulations were manufactured by dissolving the compound into water for injection at different concentrations: (i) 0.299 mg/mL, designated LD and (ii) 4.51 mg/mL, designated as HD and filter sterilizing through a Millipore Durapore 47 mm 0.22 μm filter. The liquid compositions were dispensed into individual vials (250 μl each). The pH of the LD composition was 5.48 while that of the HD composition was 6.0.
During studies involving intravitreal administration of the compstatin analog whose synthesis was described above (SEQ ID NO: 32) in water for injection to non-human primates it was observed that the compound has the ability to form gel-like, approximately spheroidal intravitreal deposits in the primate (Cynomolgus monkey) eye following intravitreal injection. […]
(§1) At necropsy, in the majority of male animals (10 of 12) that had been dosed with compound IVT at 150 μg/eye, gel-like spheroidal intravitreal deposits were observed upon dissection of the eye. These deposits were isolated and analyzed for the presence of the compound.
The deposits were analyzed for drug content, and drug content was observed and measured using HPLC.

[2] = Histopathological analysis of eyes after intravitreal injection; assay type: in vivo, New Zealand White rabbits
Procedure: Histopathological Analysis: After examination, animals were euthanized and eyes were enucleated, fixed in Davidson's solution, sectioned and H/E stained. Sections from both eyes of animals receiving 25, 50, or 100 μg/eye of compound (Table 2, last three animals) were examined by an American Board of Pathology-certified pathologist, and peer-reviewed by a board-certified and recognized expert veterinary pathologist.
Five animals in this study were also processed for histopathological evaluation. The eyes were evaluated by two pathologists. […] The cornea, iris, ciliary body, lens, sclera, retina, and vitreous were all normal.

[3] = Further studies of deposits, serum and vitreous concentration after intravitreal injection (Example 3); assay type: in vivo, Cynomolgus monkeys
Procedure: In one study, Cynomolgus monkeys were administered 0, 150, 450, 1050, or 2100 μg of compound in 50 μl WFI by intravitreal injection.
Some of the animals that had been administered 0, 450, 1050, or 2100 μg were sacrificed, and compound concentration in serum and vitreous was measured 14 days following administration. Compound measurement was performed using HPLC. […] When administered at concentrations too low to form a deposit, the compound is cleared from the Cynomolgus vitreous with a T1/2 of about 22 hours. Therefore, it is evident that the compound measured in this experiment after 2 weeks must reflect release from the deposit rather than residual compound that was never present in the deposit.
The study was continued to evaluate behavior of the deposits over time. […] There was evidence that they were diminishing in size and/or density at the 6 month time point. […] The deposits could be observed both by ophthalmoscopic examination and ultrasound. They appeared to continue diminishing in size and/or split into multiple smaller deposits over time.
The deposits were undetectable using these techniques by approximately 1 week following dosing.

[4] = Ocular safety examinations after intravitreal injection (Example 1); assay type: in vivo; details: Cynomolgus monkey
Procedure: During studies involving intravitreal administration of the compstatin analog whose synthesis was described above (SEQ ID NO: 32) in water for injection to non-human primates it was observed that the compound has the ability to form gel-like, approximately spheroidal intravitreal deposits in the primate (Cynomolgus monkey) eye following intravitreal injection. […] The high dose consisted of the intravitreal (IVT) injection of an estimated dose of 150 μg of compound in a volume of 50 μL water for injection while the low dose consisted of an estimated dose of 3 μg of compound in a volume of 50 μL water for injection.
as §1

[5] = Indirect ophthalmoscope exam in dose-ranging study for vitreous deposits formation; assay type: in vivo, New Zealand White rabbits; parameters: key to Indirect Exam Vit.: 0: Clear, no deposits, bubbles, or haziness detectable; 1: Light haziness, no opaque deposits or vitreous opacity; 2: Moderate opacity or opaque bubble or deposit; 3: Pronounced vitreal opacity; 4: Opaque; key to Indirect Exam Retina: 0: Flat, no mars, blisters or blemishes; 1: Not flat; has wrinkles, bumps, or ripples; 2: Minor inflammation or bleeding; 3: Retinal detachment, moderate hemorrhage; 4: Destruction of retinal tissue (GA, CNV, retinal tear); details: NZW rabbit; for Indirect Exam Retina / Indirect Exam Vit.: 27 hours after treatment
Procedure: The study examined the ability of compound in amounts ranging from 0 to 200 μg/eye (0, 25, 50, 75, 100, 125, 150,175, 200 μg) to form deposits in the eye following intravitreal injection (Table 2). Each concentration was injected into three eyes. Thirteen animals were used for dose-ranging. Five additional animals were used for histological analysis.
Injection Procedures: Intravitreal injections were administered using a 0.5 cc tuberculin syringe (with permanently attached 29 G ½ inch needle); 0.2 ml of compound solution was withdrawn from the vial. Excess liquid was expelled, so that the syringe contained only the necessary volume of liquid for a single injection (50 μl). The eye was kept open using an eye lid speculum. The needle was inserted in the supero-temporal quadrant, through an area 3.5-4.0 mm posterior to the limbus, avoiding the horizontal meridian and aiming toward the center of the eye. Only half (¼ inch) of the needle total length (½ inch) was inserted into the eye. The injection volume was delivered slowly to prevent a rapid increase in intraocular pressure. To ensure that all the solution is in the eye and to avoid push-back through the injection site, the needle was removed slowly.
Ophthalmic Examinations: All animals received an ophthalmic exam (indirect ophthalmoscope) by a practicing clinical ophthalmologist prior to sacrifice.

complement activation = details: relative to compstatin amidated at the C-terminus; based on published data; cited from earlier work

Histopathological evaluation of eyes ([2]; NZW rabbit, single-dose IVT 25, 50 and 100 μg/eye, two pathologists): all the evaluated eyes were normal | Serum concentration relative to vitreal concentration at the same dose ([3]; Cynomolgus monkeys, 14 days following IVT 450, 1050 or 2100 μg): approximately 100 fold lower | Duration of release from intravitreal deposits ([3]; Cynomolgus monkeys, IVT 450, 1050 or 2100 μg, serum and vitreous HPLC at 14 days): at least two weeks | half-life ([3]; cynomolgus monkey, other: intravitreal injection, Cynomolgus vitreous, concentrations too low to form a deposit, read-out: T1/2 of clearance from the vitreous (converted)): ~22 h | Indirect Exam Retina ([5]; 25 μg/eye IVT in 50 μl): 0 | Indirect Exam Vit. ([5]; 25 μg/eye IVT in 50 μl): 1 | Indirect Exam Retina ([5]; 50 μg/eye IVT in 50 μl): 0 | Indirect Exam Vit. ([5]; 50 μg/eye IVT in 50 μl): 2 and 1 | Indirect Exam Retina ([5]; 75 μg/eye IVT in 50 μl): 0 | Indirect Exam Vit. ([5]; 75 μg/eye IVT in 50 μl): 1 and 2 | Indirect Exam Retina ([5]; 100 μg/eye IVT in 50 μl): 0 | Indirect Exam Vit. ([5]; 100 μg/eye IVT in 50 μl): 2 and 3 | Indirect Exam Retina ([5]; 125 μg/eye IVT in 50 μl): 0 | Indirect Exam Vit. ([5]; 125 μg/eye IVT in 50 μl): 1 | Indirect Exam Retina ([5]; 150 μg/eye IVT in 50 μl): 0 | Indirect Exam Vit. ([5]; 150 μg/eye IVT in 50 μl): 2 and 1 | Indirect Exam Retina ([5]; 175 μg/eye IVT in 50 μl): 2 and 0 | Indirect Exam Vit. ([5]; 175 μg/eye IVT in 50 μl): 2 and 1 and 4 | Indirect Exam Retina ([5]; 200 μg/eye IVT in 50 μl): 0 | Indirect Exam Vit. ([5]; 200 μg/eye IVT in 50 μl): 1 | Pathological changes on indirect ophthalmoscopic exam ([5]; IVT 25-200 μg/eye): did not reveal any pathological changes | Eyes with vitreous haze ([5]; IVT, did not correlate strongly with dose): 9 of the 32
Compound: CC[C@H](C)[C@H](NC(C)=O)C(=O)N[C@H]1CSSC[C@@H](C(=O)N[C@H](C(N)=O)[C@@H](C)O)NC(=O)[C@H](CCCNC(=N)N)NC(=O)[C@H](Cc2cnc[nH]2)NC(=O)[C@H](C)NC(=O)CNC(=O)[C@H](Cc2c[nH]c3ccccc23)NC(=O)[C@H](CC(=O)O)NC(=O)[C@H](CCC(N)=O)NC(=O)[C@H](Cc2cn(C)c3ccccc23)NC(=O)[C@H](C(C)C)NC1=O [Ac-V4(1-MeW)/H9A, Ac-ICV(1-methyl-W)QDWGAHRCT-CONH2]
Compound in the vitreous [1]: presence of the compound at all time points examined | Adverse effects attributable to the deposits ([2]; rabbit studies, histopathology and physical examination): No adverse effects attributable to the deposits were observed | Continued release based on serum samples ([3]; Cynomolgus monkey, IVT 450, 1050, 2100 μg, up to 1 year): continued release of compstatin analog occurred during this time | Adverse effects attributable to the deposits ([3]; monkey studies, histopathology and physical examination): No adverse effects attributable to the deposits were observed | Adverse reactions caused by compound within the vitreous cavity ([4]; IVT 3 or 150 μg/eye): no evidence that the compound within the vitreous cavity caused any apparent adverse reactions | ERG values ([4]; IVT 3 or 150 μg/eye): within normal limits | Tonometry, intraocular pressure ([4]; IVT 3 or 150 μg/eye): no drug-related changes in intraocular pressure | Vitreal haze, binocular indirect ophthalmoscopy ([4]; day 2, IVT 3 μg/eye): diffuse vitreal haze in the right eye of one animal | Vitreal haze, binocular indirect ophthalmoscopy ([4]; day 2, IVT 150 μg/eye): four animals | Slit lamp examinations of the anterior segment of the eye ([4]; days 2 and 15 following IVT administration): no abnormalities | Histopathology of the eyes ([4]; with or without intravitreal deposits): no drug-related abnormalities were observed

Compound: Ac-ICV(5fW)QD(5fW)GAHRCT-CONH2 (Ac-ICV[Trp(5-F)]QD[Trp(5-F)]GAHRCT-NH2; disulfide 2-12) [Ac-V4(5fW)/W7(5fW)/H9A]
Activity over compstatin (complement activation): 161× more
